Data published in publication PMC10594875, “One-Pot De Novo Synthesis of [4Fe-4S] Proteins Using a Recombinant SUF System under Aerobic Conditions” (ACS Synthetic Biology, 2023).

Target: T1, Aconitase (AcnA) (Escherichia coli, UniProt P25516)
T1 construct: cell-free (PUREfrex) synthesis, N-His6 tag removed with HRV protease, [4Fe-4S] cluster matured by SUF system
Assay: LC-MS of citrate consumption, isocitrate dehydrogenase-coupled
Type: biochemical
Settings: coupled with NADP-dependent isocitrate dehydrogenase

T1 sequence (P25516 2-891): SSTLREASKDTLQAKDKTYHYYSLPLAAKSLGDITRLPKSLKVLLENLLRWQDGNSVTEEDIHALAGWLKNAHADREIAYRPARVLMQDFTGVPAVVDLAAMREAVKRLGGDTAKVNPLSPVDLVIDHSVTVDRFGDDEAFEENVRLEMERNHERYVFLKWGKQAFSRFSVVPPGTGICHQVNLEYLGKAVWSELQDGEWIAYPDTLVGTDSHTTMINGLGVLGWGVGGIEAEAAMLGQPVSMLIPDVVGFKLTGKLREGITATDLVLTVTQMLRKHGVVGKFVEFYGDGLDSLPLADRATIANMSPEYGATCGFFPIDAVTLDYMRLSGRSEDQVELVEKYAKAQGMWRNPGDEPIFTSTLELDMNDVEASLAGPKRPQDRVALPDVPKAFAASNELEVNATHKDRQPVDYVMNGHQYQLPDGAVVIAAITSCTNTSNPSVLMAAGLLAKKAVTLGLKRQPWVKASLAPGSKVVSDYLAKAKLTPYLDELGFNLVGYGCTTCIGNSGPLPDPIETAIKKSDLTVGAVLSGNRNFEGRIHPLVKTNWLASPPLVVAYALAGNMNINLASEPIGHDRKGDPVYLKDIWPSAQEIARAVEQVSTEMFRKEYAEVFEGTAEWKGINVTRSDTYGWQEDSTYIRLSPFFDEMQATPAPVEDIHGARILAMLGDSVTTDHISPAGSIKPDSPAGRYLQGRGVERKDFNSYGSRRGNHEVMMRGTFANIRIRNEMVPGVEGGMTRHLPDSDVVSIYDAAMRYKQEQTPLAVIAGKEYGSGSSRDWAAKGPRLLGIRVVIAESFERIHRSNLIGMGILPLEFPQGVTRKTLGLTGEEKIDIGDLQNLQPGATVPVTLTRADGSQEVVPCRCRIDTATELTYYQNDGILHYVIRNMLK

O=C(O)CC(O)(CC(=O)O)C(=O)O [citrate]
LC-MS of citrate consumption, isocitrate dehydrogenase-coupled: concurring citrate consumption and alpha-ketoglutarate production in the assays with AcnA purified
